From the NIST ThermoML archive (doi:10.1021/acs.jced.6b00655)
Where “and” joins values, the source holds several entries; their conditions need not be identical. Identical values can stand only once. Numbers after ± are expanded uncertainties.

Details: 343.15 K; 100 kPa; Liquid; Vibrating tube method

## CCCC[N+](C)(CCCC)CCCC.O=S(=O)([N-]S(=O)(=O)C(F)(F)F)C(F)(F)F [tributylmethylammonium bis((trifluoromethyl)sulfonyl)imide]
  mass density: 1224.15 ± 10 kg/m3 and 1224.18 ± 10 kg/m3
